The source of these data is publication PMC12284513, “Unique structural features define the decarboxylation activity of a CYP152 fatty acid decarboxylase from Lacicoccus alkaliphilus” (The Journal of Biological Chemistry, 2025).

Values joined by “and” are separate entries in the source; they are usually repeats but may differ in a detail not shown here. Identical values can stand only once. Like-named read-outs stand apart in the source and are kept apart here.

One assay addresses OleTLA I178L (Lacicoccus alkaliphilus, UniProt A0A1M7CBV6, I178L). The assay can be described thus: Steady-state kinetics of C16FA decarboxylation with H2O2, C15 alkene by GC-MS. Format: biochemical. The following applies: 10% (v/v) EtOH, 400 μM H2O2, pH 7.5, 25 °C. The procedure: (§1) Under specific times between 0.1 to 2 min, the reaction samples were taken and quenched by adding an equal volume of ethyl acetate. The ethyl acetate layer would contain the C15 alkene product, which was measured using GC-MS. Values of initial rates were plotted against substrate concentrations to analyze for Km and Vmax values using the Michaelis–Menten equation by GraphPad Prism software version 10.
(§2) Site-directed mutagenesis of I178L of OleTLA and […] of OleTJE was done with overlaping PCR that used OleTLA or OleTJE plasmids as templates (Table S4). The PCR products were treated with DpnI in cut smart buffer at 37 °C for 16 h, transformed into E. coli XL−1 blue competent cells and grown at 37 °C on LB agar containing 50 μg/ml ampicillin. The plasmids of selected colonies were extracted for sequence verification. The plasmid containing the correct sequence was transformed into E. coli BL21 (DE3) for enzyme expression. The expression and purification methods of variants were the same as those of wild-type OleTLA and OleTJE.

Assay [1] concerns the target T1, OleTJE (Jeotgalicoccus sp. ATCC 8456, UniProt E9NSU2).
T1 sequence (E9NSU2 1-422): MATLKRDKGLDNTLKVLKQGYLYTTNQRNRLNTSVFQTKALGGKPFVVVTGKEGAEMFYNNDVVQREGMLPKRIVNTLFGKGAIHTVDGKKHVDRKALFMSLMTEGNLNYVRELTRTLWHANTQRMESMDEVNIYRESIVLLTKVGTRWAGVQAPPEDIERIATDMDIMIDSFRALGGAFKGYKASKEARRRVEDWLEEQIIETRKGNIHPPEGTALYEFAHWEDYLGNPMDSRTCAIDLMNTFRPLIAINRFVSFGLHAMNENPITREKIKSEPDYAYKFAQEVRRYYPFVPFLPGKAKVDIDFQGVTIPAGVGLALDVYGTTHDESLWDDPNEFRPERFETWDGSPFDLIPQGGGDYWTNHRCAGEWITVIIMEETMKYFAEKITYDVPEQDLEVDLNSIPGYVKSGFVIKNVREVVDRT
As to the kind of experiment: Substrate binding by isothermal titration calorimetry (ITC). The note with it: pH 7.5, 25 °C. On the set-up: species or system Jeotgalicoccus sp. 8456. As for the experimental part: (§3) The reactions were constantly stirred at 750 rpm while controlling the temperature at 25 °C during titration. A total of 19 enzyme injections were added into the substrate solution. […] For the other 18 injections, 2 μl of the enzyme solution was added with […] to ensure that the conditions are under equilibrium. The data were processed and analyzed using the Microcal PEAQ-ITC analysis software to calculate the Kd value based on a single-site binding model.
A general note: ITC needs no label: the signal is the heat of the interaction.

In assay [2] the target is T1, OleTJE. The assay can be described thus: Steady-state kinetics of C16FA decarboxylation with H2O2, C15 alkene by GC-MS. It is filed as biochemical, Jeotgalicoccus sp. 8456. The note with it: for Km / kcat: 400 μM H2O2, pH 7.5, 25 °C. The procedure:
as §1

The target in assay [3] is T2, OleTLA (Lacicoccus alkaliphilus, UniProt A0A1M7CBV6).
T2 sequence (A0A1M7CBV6 1-424): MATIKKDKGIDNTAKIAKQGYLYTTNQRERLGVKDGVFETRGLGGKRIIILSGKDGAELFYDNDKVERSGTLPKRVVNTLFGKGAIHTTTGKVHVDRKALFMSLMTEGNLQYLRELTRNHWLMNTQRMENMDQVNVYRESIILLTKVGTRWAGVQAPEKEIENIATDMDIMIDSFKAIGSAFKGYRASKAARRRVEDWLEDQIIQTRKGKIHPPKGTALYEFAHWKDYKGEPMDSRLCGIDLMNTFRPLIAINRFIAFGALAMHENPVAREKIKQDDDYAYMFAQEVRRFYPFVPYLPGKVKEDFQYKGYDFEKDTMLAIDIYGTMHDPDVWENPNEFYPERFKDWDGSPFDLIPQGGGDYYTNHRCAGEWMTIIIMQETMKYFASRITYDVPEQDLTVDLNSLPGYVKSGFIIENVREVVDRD
Described as above. The note with it: for kcat / Km: 400 μM H2O2, pH 7.5, 25 °C. Format: biochemical. As for the experimental part: as §1

In a further assay the test system is OleTJE L176I. The assay can be described thus: Fatty acid bioconversion with H2O2 as co-substrate (alkene by GC-MS, hydroxy products by HPLC-MS). Format: biochemical, Jeotgalicoccus sp. 8456. The following applies: 200 μM substrate, 400 μM H2O2. The procedure: A reaction was typically quenched by adding 2-fold reaction volume of ethyl acetate which contained 30 μM of tetradecane as an internal standard. The reaction mixtures were vortexed for 1 min and then centrifuged at 12,000 rpm, 4 °C for 10 min to separate an organic and an aqueous phase. The organic phase was injected into an Agilent gas chromatography system (GC-MS) (Agilent 7890B equipped with Agilent 5977B MSD) equipped with a HP5-MS column (30 m × 0.25 mm × […]) (Agilent), and helium was used as a carrier gas. The oven conditions for C10FA and 1-nonene (C9 alkene) were ramped up from 60 to 240 °C with a rate of 19 ° C min^−1 and held at 240 °C for 1 min. […] For C18FA and 1-heptadecene (C17 alkene), the oven was ramped up from 60 to 250 °C with a rate of 22 °C min^−1 and hold at 250 °C for 4 min. For C20FA and 1-nonadecene (C19 alkene), the oven was ramped up from 100 to 250 °C with a rate of 23 °C min^−1 and held at 250 °C for 6 min. The response of target compounds was normalized with signals of the internal standard. The concentration of each compound was calculated based on a standard calibration curve.
For analyzing hydroxylated products of fatty acids, the reactions were quenched by adding an equal volume of acetonitrile, centrifuged, and filtrated. The analytes (10 μl) were injected into a liquid chromatography coupled with diode array and single quadrupole mass spectroscopy detection (LC-DAD/MS) (Agilent 1290 Infinity II LC System equipped with DAD, Single Quadrupole Mass Spectrometers system). A Zorbax eclipse plus C18 column (5 μm, 4.6 × 250 mm) (Agilent Technology) was used for separation. The mobile phase system A was water with 0.1% (v/v) formic acid, and system B was acetonitrile with 0.1% (v/v) formic acid.
All fatty acids were prepared in absolute EtOH at 20 mM as stock solutions. The reaction was carried out in 50 mM NaH2PO4 buffer with 300 mM NaCl, pH 7.5, with 2.5 or 10% (v/v) of EtOH, 200 μM of a substrate, and 400 μM of H2O2. The reactions were performed at 25 °C for 1 h, and then the alkene product was measured using GC-MS after the reactions were quenched and extracted with two-fold volume of ethyl acetate.
as §2

Assay [4] deals with T2, OleTLA. The assay can be described thus: Substrate binding by isothermal titration calorimetry (ITC). The following applies: pH 7.5, 25 °C. As for the experimental part:
as §3, with “The enzyme solution was filled into a syringe while the C16FA solution was filled into the ITC cell. The reactions” for “The reactions”

For assay [5], the target named is T2, OleTLA. As to the kind of experiment: Equilibrium substrate binding by heme spectral change (absorbance at 390 nm). The following applies: read-out: Kd from absorbance changes at 390 nm.
Assay [6] deals with T1, OleTJE. Details: method as in PMID 28276499. The following applies: C14FA decarboxylation; cited from earlier work.

For orientation: Km means the substrate concentration at which the rate is half of its maximum. What is called kcat is the number of substrate molecules converted per active site and unit of time at saturation. For orientation: Kd means the constant that tells how readily two partners part at equilibrium. For `CCCCCCCCCCCCCCCC(=O)O` [C16FA, hexadecanoic acid], the Km on OleTLA I178L came out at 25 ± 0.6 µM; on OleTJE [2] (2.5% (v/v) EtOH), 8.6 ± 1.4 µM; on OleTJE [2] (10% (v/v) EtOH) it was 9.6 ± 0.6 µM; on OleTLA [3] (2.5% (v/v) EtOH, read-out: KM) it was 5.4 ± 0.6 µM; on OleTLA [3] (10% (v/v) EtOH), 16.7 ± 0.6 µM. Also, the kcat on OleTLA I178L worked out at 1.6 ± 0.0417 s⁻¹; at OleTJE [2] (2.5% (v/v) EtOH), 0.647 ± 0.015 s⁻¹; at OleTJE [2] (10% (v/v) EtOH), 0.918 ± 0.0033 s⁻¹; at OleTLA [3] (2.5% (v/v) EtOH), 0.343 ± 0.0083 s⁻¹; at OleTLA [3] (10% (v/v) EtOH), 1.47 ± 0.0267 s⁻¹. The Kd was 1930 ± 160 nM at OleTJE [1] (2.5% (v/v) EtOH); 440 ± 10 nM on OleTJE [1] (10% (v/v) EtOH); 950 ± 140 nM at OleTLA [4] (2.5% (v/v) EtOH); 1260 ± 230 nM on OleTLA [4] (10% (v/v) EtOH); 320 nM on OleTLA [5] (2.5% (v/v) EtOH); 530 nM on OleTLA [5] (10% (v/v) EtOH). For the same compound, at OleTLA [5] (buffer (0% (v/v) EtOH)), the Kd is 370 nM. The TΔS on OleTJE [1] (2.5% (v/v) EtOH) was 16.13 ± 2.15 kcal/mol; at OleTJE [1] (10% (v/v) EtOH), -5.15 ± 2.74 kcal/mol; on OleTLA [4] (2.5% (v/v) EtOH), 38.10 ± 2.65 kcal/mol; at OleTLA [4] (10% (v/v) EtOH), 58.93 ± 2.00 kcal/mol. Besides, the ΔG is -7.78 ± 0.05 kcal/mol on OleTJE [1] (2.5% (v/v) EtOH), -8.67 ± 0.01 kcal/mol at OleTJE [1] (10% (v/v) EtOH), -8.22 ± 0.08 kcal/mol at OleTLA [4] (2.5% (v/v) EtOH) and -8.06 ± 0.11 kcal/mol on OleTLA [4] (10% (v/v) EtOH). The ΔH on OleTJE [1] (10% (v/v) EtOH) is -12.19 ± 5.11 kcal/mol; on OleTLA [4] (2.5% (v/v) EtOH), 29.97 kcal/mol and 29.97 ± 2.93 kcal/mol; at OleTLA [4] (10% (v/v) EtOH), 50.83 kcal/mol and 50.83 ± 2.10 kcal/mol. Also, the “Enhancement of kcat in 10% (v/v) EtOH compared to 2.5% (v/v) EtOH” value at OleTJE [2] is roughly 1.4 fold; on OleTLA [3], “around 4.3 fold”. For the same compound, in the assay with OleTJE L176I, the “Decarboxylation activity of OleTJE L176I compared to that of OleTJE wild type” value is “less than 5%”.
On to `CCCCCCCCCCCCCC(=O)O` [C14FA, tetradecanoic acid], for which the turnover number (kcat) on OleTJE [6] was 1.18 s⁻¹. The “Decarboxylation activity of OleTJE L176I compared to that of OleTJE wild type” value in the assay with OleTJE L176I is on record as “less than 1%”.
